Source: US7601331B2, “NIR-sensitive nanoparticle” (National University of Singapore, priority 2004, dated 2009)

Key:
[1] = Thermogravimetric analysis (TGA) of freeze-dried surface-modified particles; type: physicochemical; settings: for Decomposition Temp.: TGA in helium, surfactant on NIR-sensitive nanoparticles; for Ave. Absorbed (amount of ligand adsorbed): TGA of freeze-dried particles
Procedure: Thermogravimetric analysis (TGA) was conducted in helium using a Perkin-Elmer series 7 Thermal Analysis system at a ramp rate of 4° C./min from 30° C. to 900° C.

[2] = Procedure: Anti-cancer drugs and other biomolecules can be loaded onto the NIR-sensitive nanoparticles by coating the particles with surfactants. […] The insolubility of MUA in water necessitated the chemisorption of MUA in absolute ethanol. NIR-sensitive nanoparticles (colloids) were separated from the aqueous reaction mixture by centrifugation, and dispersed in 100 mM MUA in absolute ethanol. The nanoparticles (colloids) were dispersed in these surfactant solutions for 3 days, an estimated time for chemisorption to reach equilibrium.

O=C(O)CS [MAA, mercaptoacetic acid]
Decomposition Temp. [1]: ~150 °C | Ave. Absorbed (amount of ligand adsorbed) [1]: 0.14 ± 0.01 nmol/mg

O=C(O)CCCCCCCCCCS [MUA, mercaptoundecanoic acid]
Decomposition Temp. [1]: ~200 °C | Ave. Absorbed (amount of ligand adsorbed) [1]: 0.10 ± 0.03 nmol/mg | solubility in water [2]: insolubility
